Reference: PubChem BioAssay (NCI)
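Grown in 96-well plates, cells were treated for 48 hours with each compound at five concentrations. Insufficient inhibition: endpoint recorded as highest concentration tested. TGI marks complete inhibition of growth.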

How the values were obtained:
Test in all cases: NCI anticancer screen, dose series, 48 h
[1] = tested on: HCT-15 colon
[2] = tested on: HL-60(TB) leukemia
[3] = tested on: SF-295 CNS
[4] = tested on: K-562 leukemia
[5] = tested on: NCI-H23 lung
[6] = tested on: SW-620 colon
[7] = tested on: OVCAR-5 ovarian
[8] = tested on: HCT-116 colon
[9] = tested on: 786-0 renal
[10] = tested on: NCI-H226 lung
[11] = tested on: SNB-19 CNS
[12] = tested on: M14 melanoma
[13] = tested on: A549 NSCLC
[14] = tested on: MALME-3M melanoma
[15] = tested on: DMS 273 small cell lung
[16] = tested on: XF 498 CNS
[17] = tested on: ACHN renal
[18] = tested on: SN12C renal
[19] = tested on: NCI-H522 lung
[20] = tested on: SR leukemia
[21] = tested on: DMS 114 small cell lung
[22] = tested on: OVCAR-3 ovarian
[23] = tested on: SF-539 CNS
[24] = tested on: UACC-257 melanoma
[25] = tested on: HT29 colon
[26] = tested on: OVCAR-8 ovarian
[27] = tested on: OVCAR-4 ovarian
[28] = tested on: SK-MEL-28 melanoma
[29] = tested on: LOX IMVI melanoma
[30] = tested on: RPMI-8226 leukemia
[31] = tested on: HCC-2998 colon
[32] = tested on: SK-MEL-2 melanoma
[33] = tested on: HOP-92 NSCLC
[34] = tested on: KM12 colon
[35] = tested on: LXFL 529 NSCLC
[36] = tested on: DLD-1 colon
[37] = tested on: SNB-78 CNS
[38] = tested on: NCI-H460 lung
[39] = tested on: RXF 393 renal
[40] = tested on: COLO 205 colon
[41] = tested on: UO-31 renal
[42] = tested on: U251 CNS
[43] = tested on: TK-10 renal
[44] = tested on: SK-OV-3 ovarian
[45] = tested on: MOLT-4 leukemia
[46] = tested on: UACC-62 melanoma
[47] = tested on: IGROV1 ovarian
[48] = tested on: SF-268 CNS
[49] = tested on: HOP-62 NSCLC
[50] = tested on: CAKI-1 renal
[51] = tested on: CCRF-CEM leukemia
[52] = tested on: A498 renal
[53] = tested on: SK-MEL-5 melanoma
[54] = tested on: M19-MEL melanoma
[55] = tested on: EKVX NSCLC

Measured: TGI

C=CC(=O)NCCSCCCOC1(C(=O)O)CC(O)C(NC(C)=O)C(C(O)C(O)CO)O1 (stereo unspecified)
> 100 µM: [1] | [2] | [3] | [4] | [5] | [6] | [7] | [8] | [9] | [10] | [11] | [12] | [13] | [14] | [15] | [16] | [17] | [18] | [19] | [20] | [21] | [22] | [23] | [24] | [25] | [26] | [27] | [28] | [29] | [30] | [31] | [32] | [33] | [34] | [35] | [36] | [37] | [38] | [39] | [40] | [41] | [42] | [43] | [44] | [45] | [46] | [47]

COC(=O)C(Cc1nc2ccccc2[nH]c1=O)/C(=N\NC(C)(C)C)C(=O)Nc1c(C)cc(Br)cc1C (stereo unspecified)
44.5 µM: [23]
48.2 µM: [1]
37 µM: [8]
28.7 µM: [45]
45.5 µM: [33]
48.8 µM: [36]
40.7 µM: [29]
54.2 µM: [26]
> 100 µM: [3] | [4] | [7] | [11] | [49] | [13] | [17] | [18] | [24] | [25] | [27] | [30] | [31] | [32] | [34] | [37] | [38] | [55] | [41] | [44] | [47]
36.5 µM: [40]
62.2 µM: [14]
68.8 µM: [21]
90.7 µM: [54]
29 µM: [19]
69.5 µM: [52]
47.9 µM: [35]
80.1 µM: [6]
51.8 µM: [28]
57.3 µM: [51]
76.2 µM: [20]
49.3 µM: [12]
34.4 µM: [9]
54.4 µM: [10]
78 µM: [5]
49.9 µM: [42]
88.9 µM: [50]
55.3 µM: [53]
77.7 µM: [48]
44.9 µM: [46]
